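Exposure lasted 48 hours, with cells grown in 96-well plates and compounds tested at five concentrations. GI50 marks 50% less growth. TGI is the concentration that stops growth completely.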
Experiments:
Experiment in all cases: NCI-60 cell line screen, 48 h
UACC-257 melanoma = tested on: UACC-257 melanoma
K-562 leukemia = tested on: K-562 leukemia
MOLT-4 leukemia = tested on: MOLT-4 leukemia
T-47D breast = tested on: T-47D breast
NCI-H23 lung = tested on: NCI-H23 lung
NCI-H460 lung = tested on: NCI-H460 lung
MALME-3M melanoma = tested on: MALME-3M melanoma
786-0 renal = tested on: 786-0 renal
OVCAR-5 ovarian = tested on: OVCAR-5 ovarian
CCRF-CEM leukemia = tested on: CCRF-CEM leukemia
UO-31 renal = tested on: UO-31 renal
DU-145 prostate = tested on: DU-145 prostate
U251 CNS = tested on: U251 CNS
SR leukemia = tested on: SR leukemia
IGROV1 ovarian = tested on: IGROV1 ovarian
HCT-15 colon = tested on: HCT-15 colon
HCC-2998 colon = tested on: HCC-2998 colon
SF-268 CNS = tested on: SF-268 CNS
SNB-75 CNS = tested on: SNB-75 CNS
COLO 205 colon = tested on: COLO 205 colon
SK-MEL-5 melanoma = tested on: SK-MEL-5 melanoma
NCI-H522 lung = tested on: NCI-H522 lung
SNB-19 CNS = tested on: SNB-19 CNS
HS 578T breast = tested on: HS 578T breast
BT-549 breast = tested on: BT-549 breast
NCI/ADR-RES ovarian = tested on: NCI/ADR-RES ovarian
LOX IMVI melanoma = tested on: LOX IMVI melanoma
SF-295 CNS = tested on: SF-295 CNS
HCT-116 colon = tested on: HCT-116 colon
ACHN renal = tested on: ACHN renal
SW-620 colon = tested on: SW-620 colon
HT29 colon = tested on: HT29 colon
A498 renal = tested on: A498 renal
SK-MEL-2 melanoma = tested on: SK-MEL-2 melanoma
RXF 393 renal = tested on: RXF 393 renal
SK-OV-3 ovarian = tested on: SK-OV-3 ovarian
HOP-92 NSCLC = tested on: HOP-92 NSCLC
MDA-MB-435 = tested on: MDA-MB-435
SF-539 CNS = tested on: SF-539 CNS
PC-3 prostate = tested on: PC-3 prostate
OVCAR-4 ovarian = tested on: OVCAR-4 ovarian
A549 NSCLC = tested on: A549 NSCLC
SK-MEL-28 melanoma = tested on: SK-MEL-28 melanoma
CAKI-1 renal = tested on: CAKI-1 renal
HL-60(TB) leukemia = tested on: HL-60(TB) leukemia
HOP-62 NSCLC = tested on: HOP-62 NSCLC
NCI-H226 lung = tested on: NCI-H226 lung
OVCAR-3 ovarian = tested on: OVCAR-3 ovarian
MCF7 breast = tested on: MCF7 breast
M14 melanoma = tested on: M14 melanoma
MDA-MB-231 breast = tested on: MDA-MB-231 breast
UACC-62 melanoma = tested on: UACC-62 melanoma
RPMI-8226 leukemia = tested on: RPMI-8226 leukemia
SN12C renal = tested on: SN12C renal
OVCAR-8 ovarian = tested on: OVCAR-8 ovarian
TK-10 renal = tested on: TK-10 renal
KM12 colon = tested on: KM12 colon

O=C(Nc1cccc(-n2cc(-c3ccncc3)c(-c3ccc(Cl)c(O)c3)n2)c1)Nc1ccc(Cl)c(C(F)(F)F)c1
GI50 (UACC-257 melanoma): 705 nM | TGI (UACC-257 melanoma): 1880 nM | GI50 (K-562 leukemia): 768 nM | TGI (K-562 leukemia): 9.36 µM | GI50 (MOLT-4 leukemia): 777 nM | TGI (MOLT-4 leukemia): 2930 nM | GI50 (T-47D breast): 911 nM | TGI (T-47D breast): 9.01 µM | GI50 (NCI-H23 lung): 1040 nM | TGI (NCI-H23 lung): 4 µM | GI50 (NCI-H460 lung): 963 nM | TGI (NCI-H460 lung): 3.69 µM | GI50 (MALME-3M melanoma): 557 nM | TGI (MALME-3M melanoma): 1580 nM | GI50 (786-0 renal): 1020 nM | TGI (786-0 renal): 8.25 µM | GI50 (OVCAR-5 ovarian): 1710 nM | TGI (OVCAR-5 ovarian): 12.3 µM | GI50 (CCRF-CEM leukemia): 719 nM | TGI (CCRF-CEM leukemia): 2700 nM | GI50 (UO-31 renal): 738 nM | TGI (UO-31 renal): 2590 nM | GI50 (DU-145 prostate): 1160 nM | TGI (DU-145 prostate): 4.51 µM | GI50 (U251 CNS): 542 nM | TGI (U251 CNS): 1270 nM | GI50 (SR leukemia): 663 nM | TGI (SR leukemia): 2050 nM | GI50 (IGROV1 ovarian): 770 nM | TGI (IGROV1 ovarian): 2430 nM | GI50 (HCT-15 colon): 949 nM | TGI (HCT-15 colon): 10.3 µM | GI50 (HCC-2998 colon): 1390 nM | TGI (HCC-2998 colon): 6.23 µM | GI50 (SF-268 CNS): 1110 nM | TGI (SF-268 CNS): 6.65 µM | GI50 (SNB-75 CNS): 514 nM | TGI (SNB-75 CNS): 5.05 µM | GI50 (COLO 205 colon): 2230 nM | TGI (COLO 205 colon): 6.73 µM | GI50 (SK-MEL-5 melanoma): 528 nM | TGI (SK-MEL-5 melanoma): 1040 nM | GI50 (NCI-H522 lung): 643 nM | TGI (NCI-H522 lung): 2190 nM | GI50 (SNB-19 CNS): 1170 nM | TGI (SNB-19 CNS): 5.31 µM | GI50 (HS 578T breast): 1050 nM | TGI (HS 578T breast): 15.7 µM | GI50 (BT-549 breast): 1160 nM | TGI (BT-549 breast): 5.36 µM | GI50 (NCI/ADR-RES ovarian): 1010 nM | TGI (NCI/ADR-RES ovarian): 9.46 µM | GI50 (LOX IMVI melanoma): 554 nM | TGI (LOX IMVI melanoma): 1150 nM | GI50 (SF-295 CNS): 656 nM | TGI (SF-295 CNS): 1710 nM | GI50 (HCT-116 colon): 938 nM | TGI (HCT-116 colon): 3.63 µM | GI50 (ACHN renal): 890 nM | TGI (ACHN renal): 32.5 µM | GI50 (SW-620 colon): 1070 nM | TGI (SW-620 colon): 3.77 µM | GI50 (HT29 colon): 2050 nM | TGI (HT29 colon): 7.11 µM | GI50 (A498 renal): 1240 nM | TGI (A498 renal): 7.93 µM | GI50 (SK-MEL-2 melanoma): 784 nM | TGI (SK-MEL-2 melanoma): 1680 nM | GI50 (RXF 393 renal): 557 nM | TGI (RXF 393 renal): 1670 nM | GI50 (SK-OV-3 ovarian): 1270 nM | TGI (SK-OV-3 ovarian): 9.73 µM | GI50 (HOP-92 NSCLC): 310 nM | TGI (HOP-92 NSCLC): 1290 nM | GI50 (MDA-MB-435): 640 nM | TGI (MDA-MB-435): 1660 nM | GI50 (SF-539 CNS): 730 nM | TGI (SF-539 CNS): 2200 nM | GI50 (PC-3 prostate): 533 nM | TGI (PC-3 prostate): 2110 nM | GI50 (OVCAR-4 ovarian): 1120 nM | TGI (OVCAR-4 ovarian): 27.2 µM | GI50 (A549 NSCLC): 914 nM | TGI (A549 NSCLC): 4.07 µM | GI50 (SK-MEL-28 melanoma): 928 nM | TGI (SK-MEL-28 melanoma): 3.21 µM | GI50 (CAKI-1 renal): 726 nM | TGI (CAKI-1 renal): 2300 nM | GI50 (HL-60(TB) leukemia): 1230 nM | TGI (HL-60(TB) leukemia): 8.99 µM | GI50 (HOP-62 NSCLC): 1040 nM | TGI (HOP-62 NSCLC): 4.75 µM | GI50 (NCI-H226 lung): 1330 nM | TGI (NCI-H226 lung): 14.6 µM | GI50 (OVCAR-3 ovarian): 658 nM | TGI (OVCAR-3 ovarian): 1950 nM | GI50 (MCF7 breast): 663 nM | TGI (MCF7 breast): 32.5 µM | GI50 (M14 melanoma): 805 nM | TGI (M14 melanoma): 2300 nM | GI50 (MDA-MB-231 breast): 538 nM | TGI (MDA-MB-231 breast): 1480 nM | GI50 (UACC-62 melanoma): 609 nM | TGI (UACC-62 melanoma): 1470 nM | GI50 (RPMI-8226 leukemia): 487 nM | TGI (RPMI-8226 leukemia): 1670 nM | GI50 (SN12C renal): 1050 nM | TGI (SN12C renal): 10.3 µM | GI50 (OVCAR-8 ovarian): 759 nM | TGI (OVCAR-8 ovarian): 2280 nM | GI50 (TK-10 renal): 1330 nM | TGI (TK-10 renal): 7.52 µM | GI50 (KM12 colon): 910 nM | TGI (KM12 colon): 3.43 µM

From PubChem BioAssay (NCI)
